From patent publication US10377764B2, “Tricyclic heterocyclic compounds as phosphoinositide 3-kinase inhibitors” (Karus Therapeutics Limited, priority 2015, dated 2019)

Experiments:
PI3K-p110β = PI3K-p110β (Homo sapiens, UniProt P42338); experiment: Fold isoform selectivity from Ki determination, non-radiometric ADP-Glo assay (Proqinase); assay type: biochemical; details: class I PI3K isoforms
Excerpt: (§1) Fold isoform selectivity inhibition against class I PI3K isoforms, as confirmed following Ki determination using the non-radiometric ADP-Glo™ assay (Promega, Madison, Wis., USA) at Proqinase GmbH is listed below.

PI3K-p110δ = PI3K-p110δ (Homo sapiens, UniProt O00329); experiment: as above; assay type: biochemical; details: class I PI3K isoforms
PI3K-p110δ, sequence (O00329 whole entry, canonical isoform): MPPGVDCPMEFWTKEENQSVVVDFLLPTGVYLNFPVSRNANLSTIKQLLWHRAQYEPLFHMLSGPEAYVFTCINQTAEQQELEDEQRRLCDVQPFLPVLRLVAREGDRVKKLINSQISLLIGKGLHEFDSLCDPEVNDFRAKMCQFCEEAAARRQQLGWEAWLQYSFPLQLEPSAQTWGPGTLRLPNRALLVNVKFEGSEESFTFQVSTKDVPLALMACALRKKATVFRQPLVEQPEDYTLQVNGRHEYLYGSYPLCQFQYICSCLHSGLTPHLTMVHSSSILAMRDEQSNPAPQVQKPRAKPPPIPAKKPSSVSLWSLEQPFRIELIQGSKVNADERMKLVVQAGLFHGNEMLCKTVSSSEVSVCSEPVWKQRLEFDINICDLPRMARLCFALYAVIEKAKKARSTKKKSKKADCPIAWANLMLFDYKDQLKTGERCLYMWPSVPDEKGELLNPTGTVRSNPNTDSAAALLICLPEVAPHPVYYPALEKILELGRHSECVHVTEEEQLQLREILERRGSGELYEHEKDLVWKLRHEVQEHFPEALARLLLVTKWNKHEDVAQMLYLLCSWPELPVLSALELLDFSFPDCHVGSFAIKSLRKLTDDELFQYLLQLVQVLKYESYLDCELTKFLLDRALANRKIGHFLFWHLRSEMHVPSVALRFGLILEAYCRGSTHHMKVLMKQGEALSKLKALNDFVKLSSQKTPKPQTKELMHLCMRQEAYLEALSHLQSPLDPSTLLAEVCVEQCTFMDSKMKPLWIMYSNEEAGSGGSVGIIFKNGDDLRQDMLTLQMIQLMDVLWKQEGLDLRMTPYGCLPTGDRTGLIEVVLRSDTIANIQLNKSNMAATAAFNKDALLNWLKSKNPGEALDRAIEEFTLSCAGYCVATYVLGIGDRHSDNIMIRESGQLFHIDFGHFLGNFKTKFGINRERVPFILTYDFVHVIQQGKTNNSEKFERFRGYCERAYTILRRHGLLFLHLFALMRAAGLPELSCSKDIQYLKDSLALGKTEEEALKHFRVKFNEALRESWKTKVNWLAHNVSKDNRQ
PI3K-p110δ, sequence (P27986 whole entry partner, canonical isoform): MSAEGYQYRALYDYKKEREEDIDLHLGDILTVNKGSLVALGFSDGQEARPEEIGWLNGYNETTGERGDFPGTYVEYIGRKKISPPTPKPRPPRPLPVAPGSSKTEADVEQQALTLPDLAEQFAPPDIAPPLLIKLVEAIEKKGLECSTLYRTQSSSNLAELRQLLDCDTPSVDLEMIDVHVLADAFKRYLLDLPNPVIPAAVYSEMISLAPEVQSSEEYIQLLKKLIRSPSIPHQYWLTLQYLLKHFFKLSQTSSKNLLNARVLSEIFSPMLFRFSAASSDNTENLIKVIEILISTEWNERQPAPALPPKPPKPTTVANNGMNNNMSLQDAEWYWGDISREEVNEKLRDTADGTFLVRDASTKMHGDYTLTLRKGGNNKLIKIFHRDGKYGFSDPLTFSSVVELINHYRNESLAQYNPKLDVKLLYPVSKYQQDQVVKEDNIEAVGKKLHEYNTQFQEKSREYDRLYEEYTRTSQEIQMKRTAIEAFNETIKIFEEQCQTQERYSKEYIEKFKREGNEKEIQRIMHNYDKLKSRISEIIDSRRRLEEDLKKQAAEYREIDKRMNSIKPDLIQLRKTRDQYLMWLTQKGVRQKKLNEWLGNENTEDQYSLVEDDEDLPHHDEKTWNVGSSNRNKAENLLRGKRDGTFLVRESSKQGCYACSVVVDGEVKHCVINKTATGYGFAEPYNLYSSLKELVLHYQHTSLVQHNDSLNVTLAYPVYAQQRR
Excerpt: as §1

[1] = Rodent pharmacokinetics: oral bioavailability and clearance, plasma; assay type: in vivo, mouse; details: for clearance: male, CD1, mouse, iv
Procedure: The following protocol was used to determine oral bioavailability and clearance.
(§2) The results are shown below. • Species=male mouse; • Strain=CD1, • n=3 male mice per time point per route; • Terminal blood sampling at 8 time points (5 min, 10 min, 0.5 hr, 1 hr, 3 hr, 6 hr, 8 hr and, 24 hr); • Collection of plasma, bio-analysis and report of pharmacokinetic parameters.
Formulation: 10% DMSO, 15% Cremophor, 75% Saline
Dosing: 10 mg/kg P.O. and 5 mg/kg I.V.
as §2, with “parameters. • Formulation: 10% DMSO, 90 & saline” for “parameters.”

[2] = IV, 5 mg/kg, male CD1 mouse plasma, free base
[3] = PO, 10 mg/kg, male CD1 mouse plasma, free base

PI3K-p110β, sequence (P42338 whole entry, canonical isoform): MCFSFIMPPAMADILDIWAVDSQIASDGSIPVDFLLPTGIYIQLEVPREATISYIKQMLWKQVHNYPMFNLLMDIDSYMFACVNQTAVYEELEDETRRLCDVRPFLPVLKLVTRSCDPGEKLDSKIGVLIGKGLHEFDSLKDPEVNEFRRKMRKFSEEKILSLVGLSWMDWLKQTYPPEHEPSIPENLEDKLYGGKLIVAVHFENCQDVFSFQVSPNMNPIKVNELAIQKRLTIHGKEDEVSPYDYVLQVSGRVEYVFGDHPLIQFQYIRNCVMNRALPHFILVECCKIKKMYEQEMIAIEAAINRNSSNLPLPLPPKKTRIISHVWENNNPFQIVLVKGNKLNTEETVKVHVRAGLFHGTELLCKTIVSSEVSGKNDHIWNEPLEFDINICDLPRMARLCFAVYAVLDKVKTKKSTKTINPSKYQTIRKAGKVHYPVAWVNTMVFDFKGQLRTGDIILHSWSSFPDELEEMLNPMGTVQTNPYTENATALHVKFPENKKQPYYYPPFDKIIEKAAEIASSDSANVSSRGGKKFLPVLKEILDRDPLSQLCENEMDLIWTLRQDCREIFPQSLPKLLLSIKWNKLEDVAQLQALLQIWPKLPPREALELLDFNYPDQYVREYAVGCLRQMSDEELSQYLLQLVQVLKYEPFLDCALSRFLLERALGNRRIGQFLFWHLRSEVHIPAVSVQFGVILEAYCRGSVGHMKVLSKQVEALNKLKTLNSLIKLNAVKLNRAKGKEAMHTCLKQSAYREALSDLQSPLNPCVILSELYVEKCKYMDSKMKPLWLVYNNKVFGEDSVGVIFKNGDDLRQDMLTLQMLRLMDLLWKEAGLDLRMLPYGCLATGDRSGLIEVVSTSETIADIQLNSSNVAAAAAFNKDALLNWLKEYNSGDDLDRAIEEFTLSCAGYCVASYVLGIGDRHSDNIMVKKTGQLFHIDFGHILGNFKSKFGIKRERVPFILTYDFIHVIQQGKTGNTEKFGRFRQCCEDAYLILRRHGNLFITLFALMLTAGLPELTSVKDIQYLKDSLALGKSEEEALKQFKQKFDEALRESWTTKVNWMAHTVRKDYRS
PI3K-p110β, sequence (P27986 whole entry partner, canonical isoform): as the sequence (P27986 whole entry partner, canonical isoform) above

| Compound | FOLD Ki p110β/p110α (PI3K-p110β) | FOLD Ki p110δ/p110α (PI3K-p110δ) | other results |
| --- | --- | --- | --- |
| Fc1cc(-c2nc(N3CCOCC3)c3oc4ncc(CN5CCC6(CC5)COC6)cc4c3n2)c2cc[nH]c2c1 [Example B, 4-(6-Fluoro-1H-indol-4-yl)-6-(morpholin-4-yl)-12-{2-oxa-7-azaspiro[3.5]nonan-7-ylmethyl}-8-oxa-3,5,10-triazatricyclo[7.4.0.0^2,7]trideca-1(13),2(7),3,5,9,11-hexaene] | ** (** ≥10x < 50x) | *** (*** ≥50x < 100x) |  |
| Fc1ccc2[nH]ccc2c1-c1nc(N2CCOCC2)c2oc3ncc(CN4CCC5(CC4)COC5)cc3c2n1 [Example D, 4-(5-Fluoro-1H-indol-4-yl)-6-(morpholin-4-yl)-12-{2-oxa-7-azaspiro[3.5]nonan-7-ylmethyl}-8-oxa-3,5,10-triazatricyclo[7.4.0.0^2,7]trideca-1(13),2(7),3,5,9,11-hexaene] | *** (*** ≥50x < 100x) | *** (*** ≥50x < 100x) |  |
| COC1CN(Cc2cnc3oc4c(N5CCOCC5)nc(-c5c(F)ccc6[nH]ccc56)nc4c3c2)C1 [Example E, 4-(5-Fluoro-1H-indol-4-yl)-12-[(3-methoxyazetidin-1-yl)methyl]-6-(morpholin-4-yl)-8-oxa-3,5,10-triazatricyclo[7.4.0.0^2,7]trideca-1(13),2(7),3,5,9,11-hexaene] | ** (** ≥10x < 50x) | ** (** ≥10x < 50x) | AUC [1, 2]: 2930 ng·h/mL; AUC(0-inf) [1, 2]: 3010 ng·h/mL; AUClast [1, 2]: 2930 ng·h/mL; Cmax [1, 2]: 3620 ng/mL; Tmax [1, 2]: 4.8 min; Vd [1, 2]: 1.29 L/kg; half-life ([1]; IV, 5 mg/kg, male CD1 mouse plasma, free base, 10% DMSO, 15% Cremophor, 75% Saline): 33 min; AUC [1, 3]: 2780 ng·h/mL; AUC(0-inf) [1, 3]: 2830 ng·h/mL; AUC(0-t) [1, 3]: 2780 ng·h/mL; Cmax [1, 3]: 1290 ng/mL; Tmax [1, 3]: 30 min; half-life ([1]; PO, 10 mg/kg, male CD1 mouse plasma, free base, 10% DMSO, 15% Cremophor, 75% Saline): 80.4 min; clearance ([1]; plasma, 5 mg/kg, male CD1 mouse plasma, free base): 28 mL/min/kg; bioavailability ([1]; plasma, oral, 10 mg/kg P.O. and 5 mg/kg I.V., male CD1 mouse, free base, 10% DMSO, 15% Cremophor, 75% Saline, read-out: Oral bioavailability (F)): 47% |
| COC1CN(Cc2cnc3oc4c(N5CCOCC5)nc(-c5cccc6[nH]c(C(F)(F)F)cc56)nc4c3c2)C1 [Example H, 12-[(3-Methoxyazetidin-1-yl)methyl]-6-(morpholin-4-yl)-4-[2-(trifluoromethyl)-1H-indol-4-yl]-8-oxa-3,5,10-triazatricyclo[7.4.0.0^2,7]trideca-1(13),2(7),3,5,9,11-hexaene] | * (* <10x) | * (* <10x) |  |
| c1cc(-c2nc(N3CCOCC3)c3oc4ncc(CN5CCCCC5)cc4c3n2)c2cc[nH]c2c1 [Example I in WO 2011/021038, reference compound] |  |  | clearance ([1]; plasma, 5 mg/kg, 5 mg/kg I.V., male CD1 mouse, mesylate salt, 10% DMSO, 90 & saline): 66 mL/min/kg |
| COC1CN(Cc2cnc3oc4c(N5CCOCC5)nc(-c5cc(F)cc6[nH]ccc56)nc4c3c2)C1 [Example I, 4-(6-Fluoro-1H-indol-4-yl)-12-[(3-methoxyazetidin-1-yl)methyl]-6-(morpholin-4-yl)-8-oxa-3,5,10-triazatricyclo[7.4.0.0^2,7]trideca-1(13),2(7),3,5,9,11-hexaene] | *** (*** ≥50x < 100x) | *** (*** ≥50x < 100x) |  |
| COC1CN(Cc2cnc3sc4c(N5CCOCC5)nc(-c5c(F)ccc6[nH]ccc56)nc4c3c2)C1 [Example K, 4-(5-Fluoro-1H-indol-4-yl)-12-[(3-methoxyazetidin-1-yl)methyl]-6-(morpholin-4-yl)-8-thia-3,5,10-triazatricyclo[7.4.0.0^2,7]trideca-1(13),2(7),3,5,9,11-hexaene] | * (* <10x) | * (* <10x) |  |
| COC1CN(Cc2cnc3oc4c(N5CCOCC5)nc(-c5cc(C(F)(F)F)cc6[nH]ccc56)nc4c3c2)C1 [Example L, 12-[(3-Methoxyazetidin-1-yl)methyl]-6-(morpholin-4-yl)-4-[6-(trifluoromethyl)-1H-indol-4-yl]-8-oxa-3,5,10-triazatricyclo[7.4.0.0^2,7]trideca-1(13),2(7),3,5,9,11-hexaene] | * (* <10x) | * (* <10x) |  |
| COC1CN(Cc2cnc3oc4c(N5CCOCC5)nc(-c5ccc(F)c6[nH]ccc56)nc4c3c2)C1 [Example N, 4-(7-Fluoro-1H-indol-4-yl)-12-[(3-methoxyazetidin-1-yl)methyl]-6-(morpholin-4-yl)-8-oxa-3,5,10-triazatricyclo[7.4.0.0^2,7]trideca-1(13),2(7),3,5,9,11-hexaene] | * (* <10x) | ** (** ≥10x < 50x) |  |
| Fc1ccc2[nH]ccc2c1-c1nc(N2CCOCC2)c2oc3ncc(N4CCOCC4)cc3c2n1 [Example O, 4-(5-Fluoro-1H-indol-4-yl)-6,12-bis(morpholin-4-yl)-8-oxa-3,5,10-triazatricyclo[7.4.0.0^2,7]trideca-1(9),2,4,6,10,12-hexaene] | * (* <10x) | * (* <10x) |  |
| CCN1CCN(Cc2cnc3oc4c(N5CCOCC5)nc(-c5c(F)ccc6[nH]ccc56)nc4c3c2)CC1=O [Example P] | * (* <10x) | ** (** ≥10x < 50x) |  |
| COC1CN(Cc2cnc3oc4c(N5CCOCC5)nc(-c5cccc6[nH]cc(F)c56)nc4c3c2)C1 [Example Q] | ** (** ≥10x < 50x) | ** (** ≥10x < 50x) |  |
